According to US20090093454A1, “Chemical Compounds” (priority 2005, published 2009):
Structures can show the parent of a compound that is named as a salt.

Legend:
human CXCR4 = target: T1, human CXCR4 (Homo sapiens, UniProt P61073); assay: Functional FLIPR assay (block of SDF-1 alpha calcium response); format: cell-based; conditions: HEK-293 cells with human CXCR4 and Gqi5 BacMam; antagonism of SDF-1 alpha [Ca2+]i change; read-out: Functional assay (pIC50) (converted)
T1 construct: expressed in transfected cells; host or cells: HEK-293 cells (stably expressing human macrophage scavenging receptor) transduced with human CXCR4 BacMam and Gqi5 BacMam baculovirus
T1 sequence (P61073 whole entry): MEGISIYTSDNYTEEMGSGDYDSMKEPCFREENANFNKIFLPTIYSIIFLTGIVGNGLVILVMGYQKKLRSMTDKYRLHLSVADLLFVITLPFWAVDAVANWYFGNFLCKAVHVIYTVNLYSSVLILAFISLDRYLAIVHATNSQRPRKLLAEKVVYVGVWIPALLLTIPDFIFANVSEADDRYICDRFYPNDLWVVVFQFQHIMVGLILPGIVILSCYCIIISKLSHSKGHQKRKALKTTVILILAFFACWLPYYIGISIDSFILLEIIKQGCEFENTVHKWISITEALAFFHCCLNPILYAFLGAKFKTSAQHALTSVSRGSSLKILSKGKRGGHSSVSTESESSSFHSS
Method: Human embryonic kidney (HEK-293) cells were maintained and harvested as described above. Cells were plated in 96-well, black clear bottom, poly-lysine coated plates at a concentration of 40,000 cells per well in a final volume of 100 ul containing human CXCR4BacMam (MOI=25) and Gqi5 BacMam (MOI=12.5). The cells were incubated at 37° C., 5% CO2, 95% humidity for 24 h to allow for protein expression.
After the required incubation time the cells were washed once with 50 ul of fresh serum-free DMEM/F12 media containing probenicid. 50 ul of dye solution was then added to the cells (Calcium Plus Assay Kit Dye; Molecular Devices) was dissolved in 200 ml of the above probenicid/BSA containing media and incubated for 1 h. Cell plates were transferred to a Fluorometric Imaging Plate Reader (FLIPR). Upon addition the effect of the compounds on the change in [Ca^2+]i was examined to determine if the compounds were agonists or antagonists (ability to block SDF-1 alpha activity) at the CXCR4 receptor. IC50 values are determined and pKb values are calculated using the Leff and Dougall equation: KB=IC50/((2+([agonist]/EC50̂b) ̂1/b−1) Where IC50 is that defined by the antagonist concentration-response curve [agonist] is the EC80 concentration of agonist used EC50 is that defined by the agonist concentration-response curve b is the slope of the agonist concentration-response curve.

[1] = system: HIV-1 gp160 (HXB2 strain) HEK-293 cells fusing with HOS (hCXCR4/hCCR5/hCD4/pHIV-LTR-luciferase) cells; assay: Cell/cell fusion assay (luciferase); format: cell-based; conditions: Homo sapiens, HEK (tat/rev/gp160 HXB2) + HOS cells, 24 h, read-out: Fusion assay (pIC50) (converted)
Text: The complete coding sequences of HIV-1 tat (GenBank Accession No. X07861) and rev (GenBank Accession No. M34378) were cloned into pcDNA3.1 expression vectors containing G418 and hygromycin resistance genes, respectively. The complete coding sequence of the HIV-1 (HXB2 strain) gp160 envelope gene (nucleotide bases 6225-8795 of GenBank Accession No. K03455) was cloned into plasmid pCRII-TOPO. The three HIV genes were additionally inserted into the baculovirus shuttle vector, pFastBacMam1, under the transcriptional control of the CMV promoter. A construction of the pHIV-I LTR containing mutated NFkB sequences linked to the luciferase reporter gene was prepared by digesting pcDNA3.1, containing the G418 resistance gene, with Nru I and Bam HI to remove the CMV promoter. LTR-luc was then cloned into the Nru I/Bam HI sites of the plasmid vector. Plasmid preparations were performed after the plasmids were amplified in Escherichia coli strain DH5-alpha. The fidelity of the inserted sequences was confirmed by double-strand nucleotide sequencing using an ABI Prism Model 377 automated sequencer.
Recombinant BacMam baculoviruses were constructed from pFastBacMam shuttle plasmids by using the bacterial cell-based Bac-to-Bac system. Viruses were propagated in Sf9 (Spodoptera frugiperda) cells cultured in Hink's TNM-FH Insect media supplemented with 10% (v/v) fetal bovine serum and 0.1% (v/v) pluronic F-68 according to established protocols.
Human osteosarcoma (HOS) cells that naturally express human CXCR4 were transfected with human CCR5, human CD4 and the pHIV-LTR-luciferase plasmid using FuGENE 6 transfection reagent. Single cells were isolated and grown under selection condition in order to generate a stable HOS (hCXCR4/hCCR5/hCD4/pHIV-LTR-luciferase) clonal cell line. The cells were maintained in Dulbeccos modified Eagles media supplemented with 10% fetal calf serum (FCS), G418 (400 ug/ml), puromycin (1 ug/ml), mycophenolic acid (40 ug/ml), xanthine (250 ug/ml) and hypoxanthine (13.5 ug/ml) to maintain a selection pressure for cells expressing the LTR-luciferase, hCCR5 and hCD4, respectively. Human embryonic kidney (HEK-293) cells stably transfected to express the human macrophage scavenging receptor (Class A, type 1; GenBank Accession No. D90187), were maintained in DMEM/F-12 media (1:1) supplemented with 10% FCS and 1.5 ug/ml puromycin. The expression of this receptor by the HEK-293 cells enhances their ability to stick to tissue culture treated plasticware.
HEK-293 cells were harvested using enzyme-free cell dissociation buffer. The cells were resuspended in DMEM/F-12 media supplemented with 10% FCS and 1.5 ug/ml and counted. Tranductions were performed by direct addition of BacMam baculovirus containing insect cell media to cells. The cells were simultaneously transduced with BacMam baculovirus expressing HIV-1 tat, HIV-1 rev and HIV-1 gp160 (from the HXB2 HIV strain). Routinely an MOI of 10 of each virus was added to the media containing the cells. 2 mM butyric acid was also added to the cells at this stage to increase protein expression in transduced cells. The cells were subsequently mixed and seeded into a flask at 30 million cells per T225. The cells were incubated at 37° C., 5% CO2, 95% humidity for 24 h to allow for protein expression.
HEK and HOS cells were harvested in DMEM/F-12 media containing 2% FCS and DMEM media containing 2% FCS, respectively, with no selection agents added. Compounds were plated as 1 ul spots in 100% DMSO on a 96-well CulturPlate plates. HOS cells (50 ul) were added first to the wells, followed immediately by the HEK cells (50 ul). The final concentration of each cell type was 20,000 cells per well. Following these additions, the cells were returned to a tissue culture incubator (37° C.; 5% CO2/95% air) for an additional 24 h.
Following the 24 h incubation, total cellular luciferase activity was measured using the LucLite Plus assay kit (Packard, Meridien, Conn.). […]

| SMILES | IC50 (human CXCR4) | IC50 [1] |
| --- | --- | --- |
| NCCCn1c(CN2CCC[C@@H]3CCc4cccnc4[C@H]32)nc2ccccc21 (racemic) [Example 8, (trans)-3-[2-(3,4,4a,5,6,10b-Hexahydro-1,10-phenanthrolin-1(2H)-ylmethyl)-1H-benzimidazol-1-yl]-1-propanamine] | 0.126 µM | 0.49 µM |
| CN1CCN(c2cccc3nc(CN4CCC[C@H]5CCc6cccnc6[C@H]54)cn23)CC1 (racemic) [Example 15B, (cis)-1-{[5-(4-Methyl-1-piperazinyl)imidazo[1,2-a]pyridin-2-yl]methyl}-1,2,3,4,4a,5,6,10b-octahydro-1,10-phenanthroline] | 0.00339 µM | 0.0055 µM |
| CN1CCN(c2cccc3nc(CN4CCC[C@@H]5CCc6cccnc6[C@@H]54)cn23)CC1 [Example 22, (4aS,10bR)-1-{[5-(4-Methyl-1-piperazinyl)imidazo[1,2-a]pyridin-2-yl]methyl}-1,2,3,4,4a,5,6,10b-octahydro-1,10-phenanthroline] | 0.0316 µM | 0.158 µM |
| CN1CCN(c2cccc3nc(CN4CCC[C@H]5CCc6cccnc6[C@H]54)cn23)CC1 [Example 27, (4aR,10bS)-1-{[5-(4-Methyl-1-piperazinyl)imidazo[1,2-a]pyridin-2-yl]methyl}-1,2,3,4,4a,5,6,10b-octahydro-1,10-phenanthroline] | 0.00126 µM | 0.00126 µM |
| CN1CCN(c2cccc3nc(CN4CCC[C@H]5CCc6cccnc6[C@H]54)[nH]c23)CC1 (racemic) [Example 33, (cis)-1-{[4-(4-Methyl-1-piperazinyl)-1H-benzimidazol-2-yl]methyl}-1,2,3,4,4a,5,6,10b-octahydro-1,10-phenanthroline] | 0.0024 µM | 0.000398 µM |
| CN1CCN(c2cccc3[nH]c(CN4CCC[C@@H]5CCc6cccnc6[C@H]54)nc23)CC1 (racemic) [Example 32, (trans)-1-{[4-(4-Methyl-1-piperazinyl)-1H-benzimidazol-2-yl]methyl}-1,2,3,4,4a,5,6,10b-octahydro-1,10-phenanthroline trifluoroacetate] | 0.479 µM | 0.2 µM |
| CN(C)CCCn1c(CN2CCC[C@@H]3CCc4cccnc4[C@@H]32)nc2ccccc21 [Example 11A, (3-{2-[(4aS,10bR)-3,4,4a,5,6,10b-Hexahydro-1,10-phenanthrolin-1(2H)-ylmethyl]-1H-benzimidazol-1-yl}propyl)dimethylamine] | 0.851 µM | 1.26 µM |
| NCCCn1c(CN2CCC[C@H]3CCc4cccnc4[C@H]32)nc2ccccc21 (racemic) [Example 9, (cis)-3-[2-(3,4,4a,5,6,10b-Hexahydro-1,10-phenanthrolin-1(2H)-ylmethyl)-1H-benzimidazol-1-yl]-1-propanamine] | 0.0195 µM | 0.0891 µM |
| CN1CCN(c2cccc3nc(CN4CCC[C@@H]5CCc6cccnc6[C@H]54)cn23)CC1 (racemic) [Example 15A, (trans)-1-{[5-(4-Methyl-1-piperazinyl)imidazo[1,2-a]pyridin-2-yl]methyl}-1,2,3,4,4a,5,6,10b-octahydro-1,10-phenanthroline] | 0.0407 µM | 0.0776 µM |
| CN(C)CCCn1c(CN2CCC[C@H]3CCc4cccnc4[C@H]32)nc2ccccc21 [Example 11B, (3-{2-[(4aR,10bS)-3,4,4a,5,6,10b-Hexahydro-1,10-phenanthrolin-1(2H)-ylmethyl]-1H-benzimidazol-1-yl}propyl)dimethylamine] | 0.0105 µM | 0.0251 µM |
| CN1CCCC(Cn2c(CN3CCC[C@H]4CCc5cccnc5[C@H]43)nc3ccccc32)C1 (mixture of isomers) [Example 13, (cis)-1-({1-[(1-Methyl-3-piperidinyl)methyl]-1H-benzimidazol-2-yl}methyl)-1,2,3,4,4a,5,6,10b-octahydro-1,10-phenanthroline] | 0.00759 µM | 0.0316 µM |
| c1cnc2c(c1)CC[C@@H]1CCCN(Cc3nc4ccccc4[nH]3)[C@H]21 (racemic) [Example 7, (cis)-1-(1H-Benzimidazol-2-ylmethyl)-1,2,3,4,4a,5,6,10b-octahydro-1,10-phenanthroline] | 0.437 µM | 3.16 µM |
| c1cnc2c(c1)CC[C@H]1CCCN(Cc3nc4ccccc4[nH]3)[C@H]21 (racemic) [Example 6, (trans)-1-(1H-Benzimidazol-2-ylmethyl)-1,2,3,4,4a,5,6,10b-octahydro-1,10-phenanthroline] | 0.126 µM | 1.12 µM |
| CN(C)CCCn1c(CN2CCC[C@@H]3CCc4cccnc4[C@H]32)nc2ccccc21 (stereo in doubt) [Example 10B, (3-{2-[(4aS,10bS)-3,4,4a,5,6,10b-Hexahydro-1,10-phenanthrolin-1(2H)-ylmethyl]-1H-benzimidazol-1-yl}propyl)dimethylamine] | 0.0933 µM | 0.2 µM |
| c1cnc2c(c1)CC[C@@H]1CCCN(Cc3nc4ccccc4n3Cc3ccncc3)[C@H]21 (racemic) [Example 12, (cis)-1-{[1-(4-Pyridinylmethyl)-1H-benzimidazol-2-yl]methyl}-1,2,3,4,4a,5,6,10b-octahydro-1,10-phenanthroline] | 1.05 µM | 7.94 µM |
| CN(C)CCCn1c(CN2CCC[C@H]3CCc4cccnc4[C@@H]32)nc2ccccc21 (stereo in doubt) [Example 10A, (3-{2-[(4aR,10bR)-3,4,4a,5,6,10b-Hexahydro-1,10-phenanthrolin-1(2H)-ylmethyl]-1H-benzimidazol-1-yl}propyl)dimethylamine] | 0.182 µM | 0.417 µM |
